Test results as given in patent US6916783B2, “Methods for accelerating bone and cartilage growth and repair” (University of Southern California, priority 1998, dated 2005).
Entries after “also recorded” stand apart in the source; their conditions may differ.

Assays:
[1] = system: chondrocytes; test: Rabbit chondrocyte proliferation in culture; assay type: cell-based; conditions: 10 μg/ml peptide; days 1, 2, and 3 after culture initiation; nuclei counted after Giemsa stain; FIGS. 1-4
Procedure: Chondrocytes were isolated from the cartilage of the knee joints of adult rabbits and cultured according to the method of Okazaki et al. (Ann. Rheum. Dis. 55:181-186, 1996). Briefly, cartilage explants were minced into small pieces (approximately 1.5 mm by 1.5 mm). The tissue pieces were digested at 37° C. sequentially in 0.05% hyaluronidase (415 U/mg protein) for 10 minutes, 0.2% Type III trypsin (10,000 U/mg protein, Sigma) and 0.53 mM EDTA for 15 minutes, and 0.2% Type I collagenase (136 U/mg protein, Sigma) for 30 minutes. The samples were then washed and incubated overnight at 37° C. in 5% CO2 in air in Dulbecco's modified Eagle's medium enriched with 10% fetal calf serum, 3.5 mg/ml glucose, 0.2% Type I collagenase and antibiotics (100 U/ml penicillin and 100 μg/ml streptomycin).
After this incubation, the cells were harvested and washed once with phosphate buffered saline (pH 7.2). The cells were then counted with a hemacytometer and resuspended at 1×10^5 cells/ml in Ham's F12 supplemented with 10% fetal calf serum and antibiotics. A 10 ml aliquot of cells was transferred to collagen coated 25 cm^2 flasks (coated with collagen isolated from rat tail tendons) and incubated at 37° C. in 5% CO2 in air. […] Cell numbers were quantitated by staining the cells with Giemsa stain and counting the number of nuclei detected via microscopy.

[2] = target: T1, AT2 receptor (Homo sapiens, UniProt P50052); conditions: cited from earlier work
T1 sequence (P50052 1-363): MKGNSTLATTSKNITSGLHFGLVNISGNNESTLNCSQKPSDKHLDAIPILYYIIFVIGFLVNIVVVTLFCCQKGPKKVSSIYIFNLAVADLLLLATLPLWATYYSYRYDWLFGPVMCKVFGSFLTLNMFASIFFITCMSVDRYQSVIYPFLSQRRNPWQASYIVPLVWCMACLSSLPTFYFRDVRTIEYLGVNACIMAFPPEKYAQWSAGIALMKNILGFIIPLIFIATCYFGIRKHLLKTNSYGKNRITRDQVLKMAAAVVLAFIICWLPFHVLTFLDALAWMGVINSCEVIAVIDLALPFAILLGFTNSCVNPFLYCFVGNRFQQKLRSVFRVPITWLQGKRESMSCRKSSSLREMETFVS

[3] = Effectiveness tests of AII fragments (method not described); conditions: test not specified

Row | Substance | effect on chondrocyte proliferation [1] | times higher affinity for AT2 than AT1 [2] | effectiveness in tests [3]
1 | Asp-Arg-Val-Tyr-Ile-His-Pro-Phe (DRVYIHPF) [AII] | accelerated the chondrocyte proliferation | 100 times | 
2 | His-Pro-Phe (HPF) [AII(6-8)] |  |  | not to be effective
3 | Tyr-Ile-His-Pro-Phe (YIHPF) [AII(4-8)] |  |  | not to be effective; also recorded: ineffective in repeated tests
